The text below walks through data of US11358969B2, “Indole AHR inhibitors and uses thereof” (Ikena Oncology, Inc., priority 2017, dated 2022).

Molecules are shown by their SMILES.

The target in one data set is T1, AHR (UniProt P35869).
T1 construct: IC50
T1 sequence (P35869 1-848): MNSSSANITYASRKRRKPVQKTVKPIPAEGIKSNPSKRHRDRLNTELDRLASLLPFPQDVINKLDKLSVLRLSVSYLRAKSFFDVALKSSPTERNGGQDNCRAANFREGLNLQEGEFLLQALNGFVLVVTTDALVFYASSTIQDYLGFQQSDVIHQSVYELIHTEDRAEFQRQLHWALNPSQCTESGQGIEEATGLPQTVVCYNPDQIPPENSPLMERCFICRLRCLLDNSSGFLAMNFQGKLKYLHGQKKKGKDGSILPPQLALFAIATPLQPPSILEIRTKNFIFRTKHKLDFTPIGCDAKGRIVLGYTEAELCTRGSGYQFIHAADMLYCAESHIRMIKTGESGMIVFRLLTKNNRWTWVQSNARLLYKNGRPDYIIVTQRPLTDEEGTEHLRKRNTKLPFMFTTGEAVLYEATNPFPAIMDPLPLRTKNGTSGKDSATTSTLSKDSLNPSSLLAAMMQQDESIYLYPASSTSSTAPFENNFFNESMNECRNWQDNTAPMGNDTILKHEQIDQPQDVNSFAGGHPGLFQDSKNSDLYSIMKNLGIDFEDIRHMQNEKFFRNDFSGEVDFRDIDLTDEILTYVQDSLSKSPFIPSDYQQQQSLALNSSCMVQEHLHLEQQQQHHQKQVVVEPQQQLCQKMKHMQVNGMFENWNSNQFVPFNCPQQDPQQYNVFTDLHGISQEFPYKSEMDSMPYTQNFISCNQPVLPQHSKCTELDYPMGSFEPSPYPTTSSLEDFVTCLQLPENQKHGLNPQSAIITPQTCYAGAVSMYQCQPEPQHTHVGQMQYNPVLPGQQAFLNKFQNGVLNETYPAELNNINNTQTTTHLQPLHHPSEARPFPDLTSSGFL
In words: DRE-Luciferase Reporter Assay (Alternate Method) (Example 1B). The note with it: cell line and AHR activating ligand not specified. It is filed as cell-based, murine or human.

Data set [1] can be described thus: In Vitro Mouse liver S9 Metabolic Stability Assay (Example 1D). It is filed as in vitro ADME. The conditions noted are these: CD-1 mouse liver S9, 1 μM compound, 1 mg/mL S9 protein, 37° C., NADPH regenerating system, UDPGA, PAPS. Here is the method:
CD-1 mouse liver S9 were purchased from Corning or XenoTech LLC or BioreclamationIVT, LLC or WuXi prepared. The cells were stored at −80° C. in a freezer before use. β-Nicotinamide adenine dinucleotide phosphate (NADP), Glucose 6-phosphate (G6P), Glucose 6-phosphate dehydrogenase from yeast (G6PDH), Uridine 5′-diphophoglucuronic acid trisodium salt (UDPGA) and Adenosine 3′-phosphate 5′-phosphosulfate lithium salt hydrate (PAPS) were available commercially from Sigma.
Compounds were diluted in DMSO to make 10 mM stock solution. 5 μL of this stock solution (10 mM, DMSO) was diluted with 45 μL DMSO and 450 μL 50% Methanol/Water to make intermediate stock solution (100 μM, 45% MeOH, 10% DMSO). 50 μL of intermediate stock solution was diluted with 450 μL 100 mM phosphate buffer to make a final stock solution (10 μM, 4.5% MeOH, 1% DMSO). 10 uL of final stock solution was added to 90 uL liver S9 system (final concentration of 1 μM, 0.45% MeOH, 0.1% DMSO).
Test compounds were incubated at 37° C. with liver S9 (pooled from multiple donors) at 1 μM in the presence of a NADPH regenerating system, UDPGA, and PAPS at 1 mg/mL S9 protein. Time samples (0 and 60 minutes) were removed and immediately mixed with cold acetonitrile containing internal standard (IS). Samples were analyzed by LC/MS/MS and disappearance of test compounds were assessed based on peak area ratios of analyte /IS (no standard curve). All samples were injected and analyzed using LC-MS/MS. The analyte/internal standard peak area ratios were converted to percentage remaining (% Remaining) with the following equation: % Remaining at 60 min=(Peak area ratio of analyte to IS at 60 min/Peak area ratio of analyte to IS at t=0)×100%. Table 5. Mouse Stability Data According to Example 1D.

Data set [2] can be described thus: Mouse Pharmacokinetic Study (Example 1C). It is filed as in vivo. The conditions noted are these: mouse, plasma, CD-1 mice; for Vd: read-out: Vdss. Here is the method:
Formulations of compounds set forth in Table 4 were administered intravenously or orally via gavage to CD-1 mice. Typically, at 0.167, 0.5, 1, 2, 4, 6, 12, and 24 hours post-dose, blood was collected and processed to plasma by centrifugation and stored at −80° C. until analysis.
Internal standard was added to each sample prior to protein precipitation with acetonitrile. The precipitates were filtered through a Phree phospholipid removal filter plate and the samples were analyzed by LC/MS/MS. A standard curve was prepared in plasma from typically from 1.0 ng/mL to 3000 ng/mL and processed in the same manner as the samples. Sample analysis was typically performed on a suitable LC/MS/MS system fitted with an analytical UPLC column and compounds eluted from the analytical column with a gradient from 30-95% 0.1% formic acid (v/v) in ACN: 0.1% formic acid (v/v) in water. Mass spectrometric detection of test compound and the internal standard was performed by MRM in positive mode. The pharmacokinetics of each compound were analyzed by Phoenix WinNonlin software (Pharsight, St. Louis, Mo.) via non-compartmental analysis.

The molecule `CC(C)(C)c1cnn2c(NCCc3c[nH]c4ccccc34)cc(-c3cncc(F)c3)nc12` [I-90, 3-tert-Butyl-5-(5-fluoro-3-pyridyl)-N-[2-(1H-indol-3-yl)ethyl]pyrazolo[1,5-a]pyrimidin-7-amine] displayed an IC50 on AHR of less than 500 nM. The “Mouse S9 Stability: % Remaining After 60 Minutes” value in data set [1] came to 11%.

As for `Fc1cncc(-c2nc(N[C@@H]3CCc4[nH]c5ccccc5c4C3)c3ncccc3n2)c1` [I-126, (3R)—N-[2-(5-Fluoro-3-pyridyl)pyrido[3,2-d]pyrimidin-4-yl]-2,3,4,9-tetrahydro-1H-carbazol-3-amine], at AHR, the half-maximal inhibitory concentration (IC50) was less than 500 nM. In data set [2] (po, 30 mg/kg), the bioavailability came out at 100%, the AUC(0-inf) amounted to 14700 ng·h/mL, the area under the curve AUC(0-t) was found to be 13700 ng·h/mL and the maximum concentration (Cmax) amounted to 1870 ng/mL. Further, in data set [2] (po, 30 mg/kg), the time to peak (Tmax) was found to be 1 h and the half-life is 6.1 h. In data set [2] (iv, 3 mg/kg), the area under the curve AUC(0-inf) came to 1650 ng·h/mL, the AUC(0-t) was 1460 ng·h/mL, the clearance is 30 mL/min/kg and the half-life was 8.8 h. Further, the Vd in data set [2] (iv, 3 mg/kg) was found to be 17 L/kg.

For the molecule `CC(C)c1cnn2c(N[C@H](C)Cc3c[nH]c4ccccc34)cc(-c3cncc(F)c3)nc12` [I-98b], the “Mouse S9 Stability: % Remaining After 60 Minutes” value in data set [1] amounted to 0%.

Take `CN(C)c1cnn2c(N[C@@H]3CCc4[nH]c5ccccc5c4C3)nc(-c3cncc(F)c3)nc12` [I-129, 2-(5-Fluoro-3-pyridyl)-N8,N8-dimethyl-N4-[(3R)-2,3,4,9-tetrahydro-1H-carbazol-3-yl]pyrazolo[1,5-a][1,3,5]triazine-4,8-diamine]: the half-maximal inhibitory concentration (IC50) against AHR was less than 500 nM. In data set [2] (po, 30 mg/kg), the bioavailability came to 53%, the area under the curve AUC(0-inf) was found to be 7530 ng·h/mL, the AUC(0-t) amounted to 7030 ng·h/mL and the Cmax was 1040 ng/mL. Besides, in data set [2] (po, 30 mg/kg), the Tmax stood at 2 h and the half-life is 6.4 h. In data set [2] (iv, 3 mg/kg), this molecule gave an AUC(0-inf) of 1620 ng·h/mL, an AUC(0-t) of 1340 ng·h/mL, a clearance of 31 mL/min/kg and a half-life of 14 h. The Vd in data set [2] (iv, 3 mg/kg) came to 22 L/kg.

At AHR, `CC(C)c1cnn2c(N[C@H]3CCc4[nH]ccc4C3)nc(-c3cncc(F)c3)nc12` [I-137a, 2-(5-fluoro-3-pyridyl)-8-isopropyl-N-[(5S)-4,5,6,7-tetrahydro-1H-indol-5-yl]pyrazolo[1,5-a][1,3,5]triazin-4-amine] gave a half-maximal inhibitory concentration (IC50) of less than 500 nM. In data set [2] (po, 30 mg/kg), the bioavailability worked out at 19%, the AUC(0-inf) was found to be 3840 ng·h/mL, the AUC(0-t) was determined as 3780 ng·h/mL and the Cmax came out at 953 ng/mL. Besides, in data set [2] (po, 30 mg/kg), the time of peak concentration (Tmax) is 0.5 h and the half-life was 3.5 h. Moreover, in data set [2] (iv, 3 mg/kg), the AUC(0-inf) worked out at 2010 ng·h/mL, the exposure AUC(0-t) came out at 1920 ng·h/mL, the clearance amounted to 25 mL/min/kg and the half-life is 8.2 h. For the same molecule, the Vd in data set [2] (iv, 3 mg/kg) is 6.6 L/kg.

In data set [2] (po, 30 mg/kg), `C[C@H](O)c1cnn2c(N[C@@H]3CCc4[nH]c5ccccc5c4C3)nc(-c3cncc(F)c3)nc12` [I-118] registered a bioavailability of 3%, an AUC(0-inf) of 121 ng·h/mL, an exposure AUC(0-t) of 107 ng·h/mL and a maximum concentration (Cmax) of 41 ng/mL. Moreover, in data set [2] (po, 30 mg/kg), the Tmax was determined as 1 h and the half-life was 1.9 h. Moreover, in data set [2] (iv, 3 mg/kg), the AUC(0-inf) was found to be 368 ng·h/mL, the AUC(0-t) was 364 ng·h/mL, the clearance worked out at 136 mL/min/kg and the half-life was 0.6 h. The Vd in data set [2] (iv, 3 mg/kg) is 4.9 L/kg.

`CC(C)c1cnn2c(N[C@@H]3CCc4[nH]ccc4C3)nc(-c3cncc(F)c3)nc12` [I-137b, 2-(5-fluoro-3-pyridyl)-8-isopropyl-N-[(5R)-4,5,6,7-tetrahydro-1H-indol-5-yl]pyrazolo[1,5-a][1,3,5]triazin-4-amine] displayed an IC50 on AHR of less than 500 nM. In data set [2] (po, 30 mg/kg), the bioavailability worked out at 28%, the AUC(0-inf) came out at 3830 ng·h/mL, the area under the curve AUC(0-t) turned out to be 3630 ng·h/mL and the Cmax was determined as 476 ng/mL. Further, in data set [2] (po, 30 mg/kg), the Tmax is 2 h and the half-life is 5.9 h. Moreover, in data set [2] (iv, 3 mg/kg), the area under the curve AUC(0-inf) amounted to 1350 ng·h/mL, the AUC(0-t) turned out to be 1220 ng·h/mL, the clearance was 37 mL/min/kg and the half-life is 11.2 h. Moreover, in data set [2] (iv, 3 mg/kg), the Vd is 16.6 L/kg.

`N#Cc1cnn2c(N[C@@H]3CCc4[nH]c5ccccc5c4C3)nc(-c3cncc(F)c3)nc12` [I-130, 2-(5-Fluoro-3-pyridyl)-4-[[(3R)-2,3,4,9-tetrahydro-1H-carbazol-3-yl]amino]pyrazolo[1,5-a][1,3,5]triazine-8-carbonitrile] yielded an IC50 at AHR of less than 500 nM. In data set [2] (po, 30 mg/kg), the bioavailability stood at 53%, the AUC(0-inf) was found to be 6690 ng·h/mL, the area under the curve AUC(0-t) came to 6620 ng·h/mL and the Cmax came out at 936 ng/mL. Also, in data set [2] (po, 30 mg/kg), the Tmax is 2 h and the half-life is 3.5 h. For the same molecule, in data set [2] (iv, 3 mg/kg), the AUC(0-inf) was 1270 ng·h/mL, the AUC(0-t) was determined as 1220 ng·h/mL, the clearance came to 39 mL/min/kg and the half-life is 2.6 h. The Vd in data set [2] (iv, 3 mg/kg) is 7.5 L/kg.

`Cc1cnn2c(N[C@H]3CCc4[nH]ccc4C3)nc(-c3cncc(F)c3)nc12` [I-259a, 2-(5-fluoro-3-pyridyl)-8-methyl-N-[(5S)-4,5,6,7-tetrahydro-1H-indol-5-yl]pyrazolo[1,5-a][1,3,5]triazin-4-amine] yielded an IC50 against AHR of less than 500 nM. For the same molecule, in data set [2] (po, 30 mg/kg), the bioavailability was 3%, the AUC(0-inf) worked out at 249 ng·h/mL, the AUC(0-t) is 237 ng·h/mL and the peak level (Cmax) was 82 ng/mL. Further, in data set [2] (po, 30 mg/kg), the Tmax is 0.5 h and the half-life is 1.2 h. In data set [2] (iv, 3 mg/kg), this molecule gave an AUC(0-inf) of 842 ng·h/mL, an exposure AUC(0-t) of 825 ng·h/mL, a clearance of 59 mL/min/kg and a half-life of 1.2 h. Moreover, the Vd in data set [2] (iv, 3 mg/kg) came out at 4.7 L/kg.

`CC(C)c1cnn2c(NCCc3c[nH]c4c(F)cc(F)cc34)cc(-c3cncc(F)c3)nc12` [I-99, N-[2-(5,7-Difluoro-1H-indol-3-yl)ethyl]-5-(5-fluoro-3-pyridyl)-3-isopropyl-pyrazolo[1,5-a]pyrimidin-7-amine] showed an IC50 on AHR of less than 500 nM.

`CC(C)c1cnn2c(NCCc3ccc(O)cc3)cc(-c3cncc(F)c3)nc12` [I-108, 4-[2-[[5-(5-Fluoro-3-pyridyl)-3-isopropyl-pyrazolo[1,5-a]pyrimidin-7-yl]amino]ethyl]phenol] registered a half-maximal inhibitory concentration (IC50) on AHR of less than 500 nM.

The molecule `CC(C)n1cnc2c(NCCc3cnc4ccccn34)nc(-c3cncc(F)c3)nc21` [I-15, 2-(5-Fluoro-3-pyridyl)-N-(2-imidazo[1,2-a]pyridin-3-ylethyl)-9-isopropyl-purin-6-amine] displayed a half-maximal inhibitory concentration (IC50) at AHR of less than 500 nM.

Regarding `CCc1cnn2c(NCCc3c[nH]c4ccccc34)cc(-c3cncc(F)c3)nc12` [I-237, 3-Ethyl-5-(5-fluoro-3-pyridyl)-N-[2-(1H-indol-3-yl)ethyl]pyrazolo[1,5-a]pyrimidin-7-amine], on AHR, the 50% inhibitory concentration (IC50) was less than 500 nM.
